Patent US9919021B2, “Brain permeant peptidomimetic beta-secretase 1 inhibitors for the treatment or prophylaxis of neurological disorders or conditions” (IBET—INSTITUTO DE BIOLOGIA EXPERIMENTAL E TECNOLOGICA, priority 2016, dated 2018)
Like-named read-outs stand apart in the source and are kept apart here. Starred links: 1 amine or outer side, 2 acyl side, 3 side chain; linkers in the order of their positions; H or OH if unused. Non-standard residues stand in square brackets, D forms with d. Residues, ends and D or L forms follow the SMILES beside them. LeuΨ(S-CHOHCH2)Ala = CC(C)C[C@H](N[*:1])[C@@H](O)C[C@@H](C)C(=O)[*:2]

Legend:
[1] = target: T1, BACE-1 (human, recombinant) (Homo sapiens, UniProt P56817); assay: BACE-1 activity assay (fluorogenic substrate, HPLC-FLU); type: biochemical
T1 construct: purchased Sigma-Aldrich
From the text: The program started at 90% A for two min, graded to 70% A during ten min and finally to 0% A during two min.

[2] = target: T2, BACE-2 (human, recombinant) (Homo sapiens, UniProt Q9Y5Z0); assay: BACE-2 activity assay (fluorogenic substrate, HPLC-FLU); type: biochemical; details: pH 4.5, 37° C.; mean value ± standard deviation, n = 3; read-out: Ki^app BACE-2
T2 construct: purchased Enzo
T2 sequence (Q9Y5Z0 63-518): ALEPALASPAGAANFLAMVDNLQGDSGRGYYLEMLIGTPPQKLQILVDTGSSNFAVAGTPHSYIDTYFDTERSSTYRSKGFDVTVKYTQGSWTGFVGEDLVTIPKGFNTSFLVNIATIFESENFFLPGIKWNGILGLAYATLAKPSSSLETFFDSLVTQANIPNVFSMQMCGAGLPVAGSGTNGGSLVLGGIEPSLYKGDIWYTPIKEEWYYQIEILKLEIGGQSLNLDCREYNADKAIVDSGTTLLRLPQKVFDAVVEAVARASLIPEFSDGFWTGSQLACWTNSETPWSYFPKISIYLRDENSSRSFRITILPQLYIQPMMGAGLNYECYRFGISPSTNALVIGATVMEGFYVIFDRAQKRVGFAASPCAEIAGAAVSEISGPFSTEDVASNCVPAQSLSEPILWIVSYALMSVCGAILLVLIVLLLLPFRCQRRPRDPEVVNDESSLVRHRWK

in vitro = in vitro ADME, mice; details: mouse, brain homogenate, t1/2 brain
Description: An assay for in vitro metabolic stability was accomplished in order to test the influence of N-terminal acylation on the metabolization profile of the compounds. Therefore, compounds were prepared at 50 μM in phosphate-buffered saline (PBS) with 2% DMSO. An amount of 10 μL of the solution was added to human serum (40 μL) or to 10% of mice brain homogenate in PBS with 0.5% Triton X-100 (40 μL). All compounds were tested using the same biological samples of human serum and mice brain homogenate to ensure identical deactivation conditions. The solutions were incubated during different time periods at 37° C., after which metabolization was stopped by adding one volume of acetonitrile. Precipitated serum and brain proteins were removed by centrifugation at 14 000g for 10 min. […] The remaining peptide in the supernatant was quantified by HPLC-FLU (Merck Hitachi, Elite LaChrom), (exλ=255 nm and emλ=285 nm, to detect compounds containing phenylalanine, and exλ=275 nm and emλ=307 nm whenever tyrosine is present). Chromatographic conditions were as described for determination of enzyme activities. A calibration curve was built for each compound, and the decay in the concentration of the peptide in the incubated samples was followed until approximately 50% decay. The metabolization kinetics of the synthetic peptides followed a monophasic behaviour in vitro.

[3] = set-up: species or system Wistar rats; details: in vivo, iv; for detection in serum samples: rat
Description: Female mice (n=12, 8-12 weeks, weighing 22-37 g) and male Wistar rats (n=8, 8-12 weeks, weighing 182-201 g) were purchased from Harlan Ibérica, Barcelona, Spain. All animals received a standard diet and water ad libitum. Experiments were conducted according to the Home Office Guidance in the Operation of Animals (Scientific Procedures) Act 1986, published by Her Majesty's Stationary Office, London, UK and the Institutional Animal Research Committee Guide for the Care and Use of Laboratory Animals published by the US National Institutes of Health (NIH Publication No. 85-23, revised 1996), as well as to the currently adopted EC regulations (2010/63/EU). Finally, the studies are in compliance with the ARRIVE Guidelines for Reporting Animal Research' summarized at www.nc3rs.org.uk. Before experiments animals were fasted for 24 h.
PBS was used to prepare a solution of Ia for intravenous administration at a dose of 0.53 mg/kg. Experiments were done in triplicate. Mice and Wistar rats were sacrificed at 0.5, 1 and 2 hours after dosing and were previously anesthetized with sodium pentobarbital (6 mg/kg i.p.) for collection of blood by cardiac puncture and brain tissue was perfused by intraventricular injection of 10 mL of chilled saline solution to remove residual blood.
Serum was isolated from the blood samples by centrifugation at 657 g for 10 min, at 4° C. Serum proteins were precipitated with one volume of acetonitrile and were removed by centrifugation at 14000 g for 10 min. Brain was promptly removed and washed with PBS and blotted dry. Meninges were carefully removed. In the case of Wistar rats only cortex and hippocampus were collected while for mice the whole brain was used. The brain samples were homogenized with 2 volumes (V/w) of PBS/acetonitrile/Triton X-100 (50/50/0.5) using firstly a pestle and then a pipette and finally a sonicator. Compound Ic was added as internal standard to best mimic the recovery of compound Ia. The pellet was removed centrifuging at 14000 g for 10 min. Samples were purified by preparative reverse-phase HPLC Using a C18 column (Jupiter, Phenomenex) 250×21.2 mm, 5 μm. Chromatographic conditions were as follow: eluent (A) water/TFA (99.9:0.1, V/V), (B) acetonitrile/water/TFA (90:9.9:0.1, V/V). The linear gradient was started at 80% A, graded to 68% for 2 min and then was kept at 68% for 17 min finally grading to 0% A for 5 min. The flow rate was 10 mL/min and the column was at room temperature. […]
For identification of Ia and its metabolite in Wistar rat brain, samples were analyzed using a 4800plus MALDI-TOF/TOF (AB Sciex) mass spectrometer in the positive reflector MS and MS/MS modes with 3200 laser shots per spectrum and data was collected using the 4000 Series Explorer Software v.3.5.3 (Applied Biosystems). […]

[4] = mouse, in vivo, iv
[5] = in vivo pharmacokinetic study in mice after intravenous Ia; details: for detection in brain samples: after intravenous Ia 0.53 mg/kg, HPLC-FLU and LC-MS
[6] = pro-BACE-1, pH 4.5, 37° C., mean value ± standard deviation, n = 3, read-out: Ki BACE-1

T1 sequence (P56817 46-501): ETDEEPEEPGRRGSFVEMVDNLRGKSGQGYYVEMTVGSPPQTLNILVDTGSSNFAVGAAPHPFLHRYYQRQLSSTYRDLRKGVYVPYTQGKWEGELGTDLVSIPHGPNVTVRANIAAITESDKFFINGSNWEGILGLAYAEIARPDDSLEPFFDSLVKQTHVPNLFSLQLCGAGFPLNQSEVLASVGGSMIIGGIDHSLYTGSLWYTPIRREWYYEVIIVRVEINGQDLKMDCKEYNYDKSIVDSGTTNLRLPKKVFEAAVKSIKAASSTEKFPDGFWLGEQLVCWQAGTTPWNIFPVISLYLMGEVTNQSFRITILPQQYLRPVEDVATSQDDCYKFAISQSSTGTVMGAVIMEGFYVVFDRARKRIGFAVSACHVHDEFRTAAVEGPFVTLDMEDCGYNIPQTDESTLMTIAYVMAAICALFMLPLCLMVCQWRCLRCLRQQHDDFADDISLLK

SMILES | Ki [1, 6] [nM] | Ki [2] [nM] | half-life at 10 µM (in vitro) [h] | detection in rat cortex [3] | detection in serum samples [3] | concentration in mice brain [4] | detection in brain samples [5] | Ki [1] [nM] | detection in serum samples ([5]; half an hour after intravenous Ia 0.53 mg/kg, HPLC-FLU)
CC(C)C[C@H](NC(=O)[C@@H](N)CCC(=O)O)C(=O)N[C@@H](CC(=O)O)C(=O)N[C@@H](CC(C)C)[C@@H](O)C[C@@H](C)C(=O)N[C@H](C(=O)N[C@@H](Cc1ccccc1)C(=O)N[C@@H](Cc1ccc(O)cc1)C(=O)N[C@@H](C)C(=O)N[C@@H](CCC(=O)O)C(=O)N[C@@H](CC(=O)O)C(=O)O)C(C)C [Ig] (H-ELD[LeuΨ(S-CHOHCH2)Ala]VFYAED-OH) | 1.7 ± 0.2 | 12.7 ± 1.9 | 6 ± 0.3 | detected | detected | approximately 20 nM | found within therapeutic concentrations |  | 
CC(C)C[C@H](NC(=O)[C@@H](N)CCC(=O)O)C(=O)N[C@@H](CC(=O)O)C(=O)N[C@@H](CC(C)C)[C@@H](O)C[C@@H](C)C(=O)N[C@H](C(=O)N[C@@H](Cc1ccccc1)C(=O)N[C@@H](Cc1ccc(O)cc1)C(=O)N[C@@H](C)C(=O)N[C@@H](CCC(=O)O)C(=O)N[C@@H](CC(=O)O)C(N)=O)C(C)C [Ic] (H-ELD[LeuΨ(S-CHOHCH2)Ala]VFYAED-NH2) | 1.9 ± 0.2 | 14.2 ± 2.2 | 2.3 ± 0.1 |  |  |  |  | 2 ± 0.1 | 
CC(C)C[C@H](NC(=O)[C@@H](N)CCC(=O)O)C(=O)N[C@@H](CC(=O)O)C(=O)N[C@@H](CC(C)C)[C@@H](O)C[C@@H](C)C(=O)N[C@H](C(=O)N[C@@H](Cc1ccccc1)C(=O)N[C@@H](Cc1ccccc1)C(=O)N[C@@H](C)C(=O)N[C@@H](CCC(=O)O)C(=O)N[C@@H](CC(=O)O)C(N)=O)C(C)C [Id] (H-ELD[LeuΨ(S-CHOHCH2)Ala]VFFAED-NH2) | 2 ± 0.1 | 7.3 ± 0.9 |  |  |  |  |  |  | 
CC(C)C[C@H](NC(=O)[C@@H](N)CCC(=O)O)C(=O)N[C@@H](CC(=O)O)C(=O)N[C@@H](CC(C)C)[C@@H](O)C[C@@H](C)C(=O)N[C@H](C(=O)N[C@@H](CCC(=O)O)C(=O)N[C@@H](Cc1ccccc1)C(=O)O)C(C)C [OM00-3, reference compound] (H-ELD[LeuΨ(S-CHOHCH2)Ala]VEF-OH) |  | 3 ± 0.3 | 5.8 ± 0.7 |  |  |  |  |  | 
CC(=O)N[C@@H](CCC(=O)O)C(=O)N[C@@H](CC(C)C)C(=O)N[C@@H](CC(=O)O)C(=O)N[C@@H](CC(C)C)[C@@H](O)C[C@@H](C)C(=O)N[C@H](C(=O)N[C@@H](Cc1ccccc1)C(=O)N[C@@H](Cc1ccc(O)cc1)C(=O)N[C@@H](C)C(=O)N[C@@H](CCC(=O)O)C(=O)N[C@@H](CC(=O)O)C(N)=O)C(C)C [Ia] (Ac-ELD[LeuΨ(S-CHOHCH2)Ala]VFYAED-NH2) | 2 ± 0.6 | 18.3 ± 0.5 | 3.4 | not detected | detected |  | could not be detected |  | not detected
